According to article PMC5947727, “Crystal structures of Lymphocytic choriomeningitis virus endonuclease domain complexed with diketo-acid ligands” (IUCrJ, 2018):

Legend:
[1] = target: T1, LCMV endonuclease domain (ENDO, ENDO-WT) (Lymphocytic choriomeningitis virus (strain Armstrong), UniProt P14240); experiment: biochemical; format: binding
T1 construct: gene L; N-terminal endonuclease domain of L (residues 1-196), N-terminal hexahistidine tag, pDEST14, E. coli Rosetta (DE3) pLysS; IMAC, Q Sepharose, Superdex 200

[2] = target: T2, LCMV endonuclease domain (ENDO, ENDO-WT) (Lymphocytic choriomeningitis virus (strain Armstrong), UniProt P14240, D119A); experiment: biochemical; format: binding
T2 construct: gene L; N-terminal endonuclease domain of L (residues 1-196), N-terminal hexahistidine tag, pDEST14, E. coli Rosetta (DE3) pLysS; IMAC, Q Sepharose, Superdex 200

Compound | Kd [1] [nM] | Kd [2] [nM]
O=C(O)C(O)=CC(=O)c1ccc(-c2ccccc2)cc1 [compound 3, 2-hydroxy-4-(biphenyl-4-yl)-4-oxobut-2-enoic acid] | 50 ± 20 | 
O=C(O)/C(O)=C/C(=O)C1(Cc2ccc(Cl)cc2)CCN(Cc2ccccc2)CC1 [compound 2, (Z)-4-{1-benzyl-4-[(4-chlorophenyl)methyl]piperidin-4-yl}-2-hydroxy-4-oxobut-2-enoic acid] | 510 ± 110 | 890 ± 60
O=C(O)C(O)=CC(=O)c1ccc2ccc3ccccc3c2c1 [compound 4, 2-hydroxy-4-oxo-4-(phenanthren-3-yl)but-2-enoic acid] | 250 ± 70 | 
O=C(O)C(=O)CC(=O)c1ccccc1 [compound 1, 2,4-dioxo-4-phenylbutanoic acid] | 5380 ± 2060 | 18800 ± 3880
